In ChEMBL document CHEMBL1151400, “Plant antiviral agents. III. Isolation of alkaloids from Clivia miniata Regel (Amaryllidaceae)” (J Nat Prod, 1982) one finds Activity, pTCD50 and selectivity ratio data, which are given here for four molecules.

The source made the active and inactive calls. The calls are words filed in the database; no cut-off is given here.

For data set [1], the system named is Vero. The experiment in a line: Cytotoxicity against Poliovirus infected african green monkey Vero cells assessed as monolayer destruction at > 25 ug/mL. To be noted: chlorocebus sabaeus. It is filed as cell-based.
In data set [2] the test system is Semliki Forest virus. The experiment in a line: Antiviral activity against Semliki forest virus infected african green monkey Vero cells assessed as reduction in virus-induced cytopathic effect at 5 ug/mL after 96 hrs measured as viral titer per ml by microscopy. In kind it is functional. (In general: Protection from cytopathic effect is a common read-out in antiviral testing.)

Data set [3] has as its system Measles morbillivirus. The experiment in a line: Antiviral activity against Measles virus infected african green monkey Vero cells assessed as reduction in virus-induced cytopathic effect at 5 ug/mL after 96 hrs measured as viral titer per ml by microscopy. It is filed as functional.
Data set [4] concerns Vero. Description: Cytotoxicity against Poliovirus infected african green monkey Vero cells assessed as monolayer destruction at 50 ug/mL. It is filed as cell-based. To be noted: chlorocebus sabaeus.
In data set [5] the test system is Enterovirus C. The experiment in a line: Antiviral activity against Poliovirus infected african green monkey Vero cells assessed as reduction of virus-induced cytopathic effect at 1 ug/mL after 4 days. In kind it is functional, organism-based.
For data set [6], the system named is Semliki Forest virus. The experiment in a line: Antiviral activity against Semliki forest virus infected african green monkey Vero cells assessed as reduction in virus-induced cytopathic effect at 20 ug/mL after 96 hrs measured as viral titer per ml by microscopy. In kind it is functional.
In data set [7] the test system is Enterovirus C. Description: Antiviral activity against Poliovirus infected african green monkey Vero cells assessed as reduction of virus-induced cytopathic effect at < 1 ug/mL after 4 days. In kind it is functional, organism-based.
Data set [8] has as its system Enterovirus C. The experiment in a line: Antiviral activity against Poliovirus infected african green monkey Vero cells assessed as reduction in virus-induced cytopathic effect at 5 ug/mL after 96 hrs measured as viral titer per ml by microscopy. In kind it is functional.
Data set [9] deals with Simplexvirus. The experiment in a line: Antiviral activity against Herpes simplex virus infected african green monkey Vero cells assessed as reduction in virus-induced cytopathic effect at 2.5 ug/mL after 96 hrs measured as viral titer per ml by microscopy. In kind it is functional.
Data set [10] has as its system Simplexvirus. Description: Antiviral activity against Herpes simplex virus infected african green monkey Vero cells assessed as reduction in virus-induced cytopathic effect at 5 ug/mL after 96 hrs measured as viral titer per ml by microscopy. In kind it is functional.
The subject of data set [11] is Semliki Forest virus. Description: Antiviral activity against Semliki forest virus infected african green monkey Vero cells assessed as reduction in virus-induced cytopathic effect at 2.5 ug/mL after 96 hrs measured as viral titer per ml by microscopy. It is filed as functional.
Data set [12] has as its system Vero. Description: Cytotoxicity against Semliki forest virus infected african green monkey Vero cells assessed as monolayer destruction at 100 ug/mL. In kind it is cell-based. To be noted: chlorocebus sabaeus.
The test system of data set [13] is Vero. Description: Cytotoxicity against african green monkey Vero cells assessed as monolayer destruction at 50 ug/mL after 24 hrs by trypan blue exclusion test. In kind it is cell-based. To be noted: chlorocebus sabaeus.
The subject of data set [14] is Enterovirus C. The experiment in a line: Antiviral activity against Poliovirus infected african green monkey Vero cells assessed as reduction in virus-induced cytopathic effect at 20 ug/mL after 96 hrs measured as viral titer per ml by microscopy. It is filed as functional.
Data set [15] in a line: Therapeutic index, ratio of cytotoxicity against african green monkey Vero cells to antiviral activity against Herpes simplex virus. In kind it is cell-based. To be noted: read-out: TI.
In data set [16] the test system is Simplexvirus. Description: Antiviral activity against Herpes simplex virus infected african green monkey Vero cells assessed as reduction in virus-induced cytopathic effect at 20 ug/mL after 96 hrs measured as viral titer per ml by microscopy. In kind it is functional.
For data set [17], the system named is Vero. Description: Cytotoxicity against african green monkey Vero cells assessed as monolayer destruction at 25 ug/mL after 24 hrs by trypan blue exclusion test. In kind it is cell-based. To be noted: chlorocebus sabaeus.
Data set [18] deals with Measles morbillivirus. Description: Antiviral activity against Measles virus infected african green monkey Vero cells assessed as reduction in virus-induced cytopathic effect at 20 ug/mL after 96 hrs measured as viral titer per ml by microscopy. In kind it is functional.
The test system of data set [19] is Vero. The experiment in a line: Cytotoxicity against Semliki forest virus infected african green monkey Vero cells assessed as monolayer destruction at 50 ug/mL. In kind it is cell-based. To be noted: chlorocebus sabaeus.
Data set [20] concerns Enterovirus C. Description: Antiviral activity against Poliovirus infected african green monkey Vero cells assessed as reduction in virus-induced cytopathic effect at 2.5 ug/mL after 96 hrs measured as viral titer per ml by microscopy. In kind it is functional.
Data set [21] relates to Vero. The experiment in a line: Cytotoxicity against african green monkey Vero cells assessed as monolayer destruction at 10 ug/mL after 24 hrs by trypan blue exclusion test. In kind it is cell-based. To be noted: chlorocebus sabaeus.
Data set [22] deals with Vero. The experiment in a line: Cytotoxicity against Poliovirus infected african green monkey Vero cells assessed as monolayer destruction at 100 ug/mL. It is filed as cell-based. To be noted: chlorocebus sabaeus.
The test system of data set [23] is Vero. Description: Effect on african green monkey Vero cell growth assessed as doubling of cell generation at 1 ug/mL after 24 hrs by trypan blue exclusion test. It is filed as cell-based. To be noted: chlorocebus sabaeus.
The test system of data set [24] is Measles morbillivirus. Description: Antiviral activity against Measles virus infected african green monkey Vero cells assessed as reduction in virus-induced cytopathic effect at 2.5 ug/mL after 96 hrs measured as viral titer per ml by microscopy. It is filed as functional.
In data set [25] the test system is Vero. The experiment in a line: Cytotoxicity against Measles virus infected african green monkey Vero cells assessed as monolayer destruction at 100 ug/mL. In kind it is cell-based. To be noted: chlorocebus sabaeus.
Data set [26] deals with Enterovirus C. Description: Antiviral activity against Poliovirus infected african green monkey Vero cells assessed as reduction in virus-induced cytopathic effect at 10 ug/mL after 96 hrs measured as viral titer per ml by microscopy. In kind it is functional.
The test system of data set [27] is Semliki Forest virus. Description: Antiviral activity against Semliki forest virus infected african green monkey Vero cells assessed as reduction in virus-induced cytopathic effect at 10 ug/mL after 96 hrs measured as viral titer per ml by microscopy. In kind it is functional.
Data set [28] has as its system Enterovirus C. Description: Antiviral activity against Poliovirus infected african green monkey Vero cells assessed as reduction of virus-induced cytopathic effect at 1 ug/mL after 96 hrs by microscopy. It is filed as functional, organism-based.
Data set [29] concerns Vero. The experiment in a line: Cytotoxicity against Herpes simplex virus infected african green monkey Vero cells assessed as monolayer destruction at 100 ug/mL. In kind it is cell-based. To be noted: chlorocebus sabaeus.
A short description of data set [30]: Therapeutic index, ratio of cytotoxicity against african green monkey Vero cells to antiviral activity against Semliki forest virus. It is filed as cell-based. To be noted: read-out: TI.
Data set [31] deals with Measles morbillivirus. Description: Antiviral activity against Measles virus infected african green monkey Vero cells assessed as reduction in virus-induced cytopathic effect at 10 ug/mL after 96 hrs measured as viral titer per ml by microscopy. In kind it is functional.
Data set [32] concerns Vero. Description: Cytotoxicity against Measles virus infected african green monkey Vero cells assessed as monolayer destruction at 50 ug/mL. To be noted: chlorocebus sabaeus. In kind it is cell-based.
Data set [33] can be described thus: Therapeutic index, ratio of cytotoxicity against african green monkey Vero cells to antiviral activity against Measles virus. It is filed as cell-based. To be noted: read-out: TI.
The nature of data set [34]: Therapeutic index, ratio of cytotoxicity against african green monkey Vero cells to antiviral activity against Poliovirus. It is filed as cell-based. To be noted: read-out: TI.
The test system of data set [35] is Vero. Description: Cytotoxicity against Herpes simplex virus infected african green monkey Vero cells assessed as monolayer destruction at 50 ug/mL. It is filed as cell-based. To be noted: chlorocebus sabaeus.
For data set [36], the system named is Simplexvirus. The experiment in a line: Antiviral activity against Herpes simplex virus infected african green monkey Vero cells assessed as reduction in virus-induced cytopathic effect at 10 ug/mL after 96 hrs measured as viral titer per ml by microscopy. In kind it is functional.
Data set [37] concerns Simplexvirus. Description: Antiviral activity against Herpes simplex virus infected african green monkey Vero cells assessed as reduction virus-induced cytopathic effect at 50 ug/mL after 96 hrs measured as viral titer per ml by microscopy. It is filed as functional.
The test system of data set [38] is Measles morbillivirus. Description: Antiviral activity against Measles virus infected african green monkey Vero cells assessed as reduction in virus-induced cytopathic effect at 50 ug/mL after 96 hrs measured as viral titer per ml by microscopy. It is filed as functional.
Data set [39] deals with Enterovirus C. The experiment in a line: Antiviral activity against Poliovirus infected african green monkey Vero cells assessed as reduction in virus-induced cytopathic effect at 50 ug/mL after 96 hrs measured as viral titer per ml by microscopy. It is filed as functional.
In data set [40] the test system is Semliki Forest virus. Description: Antiviral activity against Semliki forest virus infected african green monkey Vero cells assessed as reduction in virus-induced cytopathic effect at 50 ug/mL after 96 hrs measured as viral titer per ml by microscopy. In kind it is functional.
The subject of data set [41] is Measles morbillivirus. Description: Antiviral activity against Measles virus infected african green monkey Vero cells assessed as reduction in virus-induced cytopathic effect at 100 ug/mL after 96 hrs measured as viral titer per ml by microscopy. It is filed as functional.
In data set [42] the test system is Enterovirus C. Description: Antiviral activity against Poliovirus infected african green monkey Vero cells assessed as reduction in virus-induced cytopathic effect at 100 ug/mL after 96 hrs measured as viral titer per ml by microscopy. It is filed as functional.
The subject of data set [43] is Simplexvirus. Description: Antiviral activity against Herpes simplex virus infected african green monkey Vero cells assessed as reduction in virus-induced cytopathic effect at 100 ug/mL after 96 hrs measured as viral titer per ml by microscopy. In kind it is functional.
For data set [44], the system named is Semliki Forest virus. Description: Antiviral activity against Semliki forest virus infected african green monkey Vero cells assessed as reduction in virus-induced cytopathic effect at 100 ug/mL after 96 hrs measured as viral titer per ml by microscopy. It is filed as functional.

Regarding `O[C@H]1[C@H]2c3cc4c(cc3CN3CCC(=C[C@@H]1O)[C@H]23)OCO4` [LYCORINE], the Activity result is reported as “Toxic” in data set [1]; “Toxic” in [4]; “Toxic” in [12]; “Toxic” in data set [13]; “Non-toxic” in data set [17]; “Toxic” in [19]. The Activity result in [21] is recorded as “Non-toxic”; in data set [22], “Toxic”; in data set [23] it was “Active”; in [25], “Toxic”; in data set [29], “Toxic”; in [32] it was “Toxic”. The Activity result in data set [35] was “Toxic”. For the same molecule, the pTCD50 in [2] is given as 1000; in [3], 100; in data set [6] it was 10000; in data set [8], 100; in data set [9], 100; in [10], 1000. Besides, the pTCD50 in [11] was 100; in data set [14] it was 10000; in [16], 1000; in data set [18], 1000; in data set [20], 100; in data set [24], 100. Also, the pTCD50 in [26], in [27], in data set [31] and in data set [36] was 1000 in each case. The result in [5] and in data set [28] was Active. In data set [7], the result was inactive. In addition, the selectivity ratio in data set [15], in data set [30], in data set [33] and in data set [34] was 10 each time.

With `CCOC(=O)c1cc(C(=O)O[C@H]2C[C@H]3CCN(C)[C@H]3[C@@H]3c4cc5c(cc4C(=O)O[C@H]32)OCO5)c(C)nc1C` [CLIVIAMARTINE], the pTCD50 in data set [37] stood at 10; in data set [38], 1; in [39], 1; in data set [40], 1; in [41], 1; in data set [42], 10. For the same molecule, the pTCD50 in data set [43] and in [44] was 10 throughout.

For the molecule `Cc1nc(C)c(C(=O)O[C@H]2C[C@H]3CCN(C)[C@H]3[C@@H]3c4cc5c(cc4C(=O)O[C@H]32)OCO5)cc1C(=O)O[C@H]1C[C@H]2CCN(C)[C@H]2[C@@H]2c3cc4c(cc3C(=O)O[C@H]21)OCO4` [CLIVIMINE], the pTCD50 in data set [2], in [3], in data set [6], in data set [8], in data set [37] and in data set [9] was 1 in each case. Also, the pTCD50 in data set [10], in data set [38], in [39], in data set [11], in [14] and in [40] was 1 in each case. Moreover, the pTCD50 in data set [16] worked out at 1; in data set [18], 1; in data set [20] it was 1; in data set [41] it was 1; in data set [42], 10; in data set [24], 1. For the same molecule, the pTCD50 came to 1 in data set [43]; 1 in data set [26]; 1 in data set [27]; 1 in data set [31]; 1 in [36]; 10 in data set [44].

In the case of `CN1CC[C@@H]2C[C@H](O)[C@@H]3OC(=O)c4cc5c(cc4[C@H]3[C@@H]21)OCO5` [CLIVONINE], the pTCD50 is reported as 1 in data set [37]; 1 in data set [38]; 1 in data set [39]; 1 in data set [40]; 1 in [41]; 10 in data set [42]. Besides, the pTCD50 in [43] and in data set [44] was 10 in each case.
